These are literature values, as cited in US20010037025A1, “New compounds, their preparation and use” (priority 1998, published 2001).

The subject of the data set is RAR. The following applies: literature statement, Heyman et al. Cell 1992.

In the case of `CC1=C(/C=C/C(C)=C/C=C/C(C)=C/C(=O)O)C(C)(C)CCC1` [all-trans RA], the “activation of / selectivity for RAR” value is recorded as “displays selectivity for RAR”.
